Measured values taken from the supplement of paper PMC10307832.

Legend:
Assay in all cases: relative viability (nuclei count vs DMSO), 5 days (fraction); higher = more cells survive
NCI-H1975 = test system: NCI-H1975
How it was run: (§1)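 Relative viability equals treated-well nuclei counts divided by vehicle-well nuclei counts. Counts came from 4× images of lung cancer cell lines grown in 1536-well plates for 5 days after pin-tool dosing on the day after seeding. Dosing used one drug alone or a fixed anchor-drug dose plus five library-drug doses (not always all listed) in √10 steps, and values are medians of duplicate plates.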

NCI-H520 = test system: NCI-H520
How it was run: as §1

SW 900 = test system: SW 900
How it was run: as §1

NCI-H1734 = test system: NCI-H1734
How it was run: as §1

ChaGo-K-1 = test system: ChaGo-K-1
How it was run: as §1

NCI-H596 = test system: NCI-H596
How it was run: as §1

H3255 = test system: H3255
How it was run: as §1

A-427 = test system: A-427
How it was run: as §1

NCI-H2170 = test system: NCI-H2170
How it was run: as §1

SK-MES-1 = test system: SK-MES-1
How it was run: as §1

PC-3 [JPC-3] = test system: PC-3 [JPC-3]
How it was run: as §1

NCI-H23 = test system: NCI-H23
How it was run: as §1

EKVX = test system: EKVX
How it was run: as §1

NCI-H1755 = test system: NCI-H1755
How it was run: as §1

LK-2 = test system: LK-2
How it was run: as §1

COR-L 105 = test system: COR-L 105
How it was run: as §1

HCC-366 = test system: HCC-366
How it was run: as §1

NCI-H441 = test system: NCI-H441
How it was run: as §1

LOU-NH91 = test system: LOU-NH91
How it was run: as §1

NCI-H1666 = test system: NCI-H1666
How it was run: as §1

EMC-BAC-2 = test system: EMC-BAC-2
How it was run: as §1

SMILES: C=C1C(=O)O[C@@H](CCCCCCCC)[C@@H]1C(=O)O [C-75] + Cc1cc(Nc2cc(N3CCN(C)CC3)nc(Sc3ccc(NC(=O)C4CC4)cc3)n2)n[nH]1 [Tozasertib] (partner 0.1 µM)
- relative viability (NCI-H1975; first compound 0.08 µM): 0.873
- relative viability (NCI-H1975; first compound 0.253 µM): 0.757
- relative viability (NCI-H1975; first compound 0.8 µM): 0.684
- relative viability (NCI-H1975; first compound 2.53 µM): 0.732
- relative viability (NCI-H1975; first compound 8 µM): 0.78
- relative viability (NCI-H520; first compound 0.08 µM): 0.428
- relative viability (NCI-H520; first compound 0.253 µM): 0.393
- relative viability (NCI-H520; first compound 0.8 µM): 0.395
- relative viability (NCI-H520; first compound 2.53 µM): 0.295
- relative viability (NCI-H520; first compound 8 µM): 0.46
- relative viability (SW 900; first compound 0.08 µM): 0.595
- relative viability (SW 900; first compound 0.253 µM): 0.919
- relative viability (SW 900; first compound 0.8 µM): 0.571
- relative viability (SW 900; first compound 2.53 µM): 0.704
- relative viability (SW 900; first compound 8 µM): 0.506
- relative viability (NCI-H1734; first compound 0.08 µM): 0.286
- relative viability (NCI-H1734; first compound 0.253 µM): 0.225
- relative viability (NCI-H1734; first compound 0.8 µM): 0.262
- relative viability (NCI-H1734; first compound 2.53 µM): 0.198
- relative viability (NCI-H1734; first compound 8 µM): 0.235
- relative viability (ChaGo-K-1; first compound 0.08 µM): 0.215
- relative viability (ChaGo-K-1; first compound 0.253 µM): 0.223
- relative viability (ChaGo-K-1; first compound 0.8 µM): 0.196
- relative viability (ChaGo-K-1; first compound 2.53 µM): 0.195
- relative viability (ChaGo-K-1; first compound 8 µM): 0.231
- relative viability (NCI-H596; first compound 0.08 µM): 0.889
- relative viability (NCI-H596; first compound 0.253 µM): 1.09
- relative viability (NCI-H596; first compound 0.8 µM): 0.728
- relative viability (NCI-H596; first compound 2.53 µM): 0.83
- relative viability (NCI-H596; first compound 8 µM): 0.821
- relative viability (H3255; first compound 0.08 µM): 0.609
- relative viability (H3255; first compound 0.253 µM): 0.856
- relative viability (H3255; first compound 0.8 µM): 0.505
- relative viability (H3255; first compound 2.53 µM): 0.701
- relative viability (H3255; first compound 8 µM): 0.751
- relative viability (A-427; first compound 0.08 µM): 0.219
- relative viability (A-427; first compound 0.253 µM): 0.264
- relative viability (A-427; first compound 0.8 µM): 0.221
- relative viability (A-427; first compound 2.53 µM): 0.199
- relative viability (A-427; first compound 8 µM): 0.175
- relative viability (NCI-H2170; first compound 0.08 µM): 0.682
- relative viability (NCI-H2170; first compound 0.253 µM): 0.826
- relative viability (NCI-H2170; first compound 0.8 µM): 0.796
- relative viability (NCI-H2170; first compound 2.53 µM): 0.291
- relative viability (NCI-H2170; first compound 8 µM): 0.861
- relative viability (SK-MES-1; first compound 0.08 µM): 0.924
- relative viability (SK-MES-1; first compound 0.253 µM): 0.989
- relative viability (SK-MES-1; first compound 0.8 µM): 0.823
- relative viability (SK-MES-1; first compound 2.53 µM): 0.863
- relative viability (SK-MES-1; first compound 8 µM): 0.898
- relative viability (PC-3 [JPC-3]; first compound 0.08 µM): 0.902
- relative viability (PC-3 [JPC-3]; first compound 0.253 µM): 0.921
- relative viability (PC-3 [JPC-3]; first compound 0.8 µM): 0.896
- relative viability (PC-3 [JPC-3]; first compound 2.53 µM): 0.858
- relative viability (PC-3 [JPC-3]; first compound 8 µM): 0.992
- relative viability (NCI-H23; first compound 0.08 µM): 0.36
- relative viability (NCI-H23; first compound 0.253 µM): 0.57
- relative viability (NCI-H23; first compound 0.8 µM): 0.417
- relative viability (NCI-H23; first compound 2.53 µM): 0.339
- relative viability (NCI-H23; first compound 8 µM): 0.254
- relative viability (EKVX; first compound 0.08 µM): 0.42
- relative viability (EKVX; first compound 0.253 µM): 0.56
- relative viability (EKVX; first compound 0.8 µM): 0.406
- relative viability (EKVX; first compound 8 µM): 0.382
- relative viability (NCI-H1755; first compound 0.08 µM): 0.568
- relative viability (NCI-H1755; first compound 0.253 µM): 0.638
- relative viability (NCI-H1755; first compound 0.8 µM): 0.552
- relative viability (NCI-H1755; first compound 2.53 µM): 0.512
- relative viability (NCI-H1755; first compound 8 µM): 0.572
- relative viability (LK-2; first compound 0.08 µM): 0.214
- relative viability (LK-2; first compound 0.253 µM): 0.157
- relative viability (LK-2; first compound 0.8 µM): 0.195
- relative viability (LK-2; first compound 2.53 µM): 0.155
- relative viability (LK-2; first compound 8 µM): 0.19
- relative viability (COR-L 105; first compound 0.08 µM): 0.366
- relative viability (COR-L 105; first compound 0.253 µM): 0.167
- relative viability (COR-L 105; first compound 0.8 µM): 0.412
- relative viability (COR-L 105; first compound 2.53 µM): 0.351
- relative viability (COR-L 105; first compound 8 µM): 0.341
- relative viability (HCC-366; first compound 0.08 µM): 0.197
- relative viability (HCC-366; first compound 0.253 µM): 0.151
- relative viability (HCC-366; first compound 0.8 µM): 0.158
- relative viability (HCC-366; first compound 8 µM): 0.115
- relative viability (NCI-H441; first compound 0.08 µM): 0.624
- relative viability (NCI-H441; first compound 0.253 µM): 0.895
- relative viability (NCI-H441; first compound 0.8 µM): 0.713
- relative viability (NCI-H441; first compound 2.53 µM): 0.543
- relative viability (NCI-H441; first compound 8 µM): 0.729
- relative viability (LOU-NH91; first compound 0.08 µM): 0.694
- relative viability (LOU-NH91; first compound 0.253 µM): 0.561
- relative viability (LOU-NH91; first compound 0.8 µM): 0.597
- relative viability (LOU-NH91; first compound 2.53 µM): 0.495
- relative viability (LOU-NH91; first compound 8 µM): 0.642
- relative viability (NCI-H1666; first compound 0.08 µM): 0.653
- relative viability (NCI-H1666; first compound 0.253 µM): 0.66
- relative viability (NCI-H1666; first compound 0.8 µM): 0.647
- relative viability (NCI-H1666; first compound 2.53 µM): 0.613
- relative viability (NCI-H1666; first compound 8 µM): 0.499
- relative viability (EMC-BAC-2; first compound 0.08 µM): 0.279
- relative viability (EMC-BAC-2; first compound 0.253 µM): 0.288
- relative viability (EMC-BAC-2; first compound 0.8 µM): 0.294
- relative viability (EMC-BAC-2; first compound 2.53 µM): 0.235
- relative viability (EMC-BAC-2; first compound 8 µM): 0.315
